Results reported in the supplement of paper PMC8882468.
± gives the standard deviation of the averaged measurements.

Tested on: HCI-017.E2 (organoid from an ER-positive breast cancer xenograft)
Experiment: CTG-3D luminescence at 96 h relative to day-0 seeding control (ratio to day 0); higher = more growth / less cytotoxicity; PDxO 3D drug screen, 96 h, CTG-3D normalised to day-0 seeding control.
Details: 1 µM

| Structure (SMILES) | CTG-3D luminescence at 96 h |
| --- | --- |
| COc1cc2c(Oc3ccc4[nH]c(C)cc4c3F)ncnc2cc1OCCCN1CCCC1 [cediranib] | 1.751 ± 0.012 |
| CC(C)n1nc(-c2ccc3oc(N)nc3c2)c2c(N)ncnc21 [sapanisertib] | 0.493 ± 0.01 |
| Cc1cc(Nc2ncnc3ccc(NC4=NC(C)(C)CO4)cc23)ccc1Oc1ccn2ncnc2c1 [tucatinib] | 1.79 ± 0.19 |
| C[C@H](NC(=O)CCC(F)(F)F)C(=O)N[C@@H]1C(=O)N(CCO)c2ncccc2-c2ccccc21 [crenigacestat] | 1.876 ± 0.007 |
| C[C@]12CC[C@@H]3c4ccc(O)cc4C[C@@H](CCCCCCCCC[S+]([O-])CCCC(F)(F)C(F)(F)F)[C@H]3[C@@H]1CC[C@@H]2O (stereo partly specified) [fulvestrant] | 1.53 ± 0.2 |
| O=C(c1ccc(F)c(F)c1Nc1ccc(I)cc1F)N1CC(O)([C@@H]2CCCCN2)C1 [cobimetinib] | 1.889 ± 0.0077 |
| O=C(/C=C/c1cccnc1)NCCCCC1CCN(C(=O)c2ccccc2)CC1 [FK866] | 0.847 ± 0.7 |
| CS(=O)(=O)c1ccc(C(=O)Nc2ccc(Cl)c(-c3ccccn3)c2)c(Cl)c1 [vismodegib] | 1.65 ± 0.23 |
| C=CCn1c(=O)c2cnc(Nc3ccc(N4CCN(C)CC4)cc3)nc2n1-c1cccc(C(C)(C)O)n1 [adavosertib] | 1.78 ± 0.26 |

Same assay, conditions: 1 µM; days in culture: 85

| Structure (SMILES) | CTG-3D luminescence at 96 h |
| --- | --- |
| COc1cc2c(Oc3ccc4[nH]c(C)cc4c3F)ncnc2cc1OCCCN1CCCC1 [cediranib] | 2.18 |
| CC(C)n1nc(-c2ccc3oc(N)nc3c2)c2c(N)ncnc21 [sapanisertib] | 0.43 |
| Cc1cc(Nc2ncnc3ccc(NC4=NC(C)(C)CO4)cc23)ccc1Oc1ccn2ncnc2c1 [tucatinib] | 3.27 |
| C[C@H](NC(=O)CCC(F)(F)F)C(=O)N[C@@H]1C(=O)N(CCO)c2ncccc2-c2ccccc21 [crenigacestat] | 1.89 |
| C[C@]12CC[C@@H]3c4ccc(O)cc4C[C@@H](CCCCCCCCC[S+]([O-])CCCC(F)(F)C(F)(F)F)[C@H]3[C@@H]1CC[C@@H]2O (stereo partly specified) [fulvestrant] | 1.78 |
| O=C(c1ccc(F)c(F)c1Nc1ccc(I)cc1F)N1CC(O)([C@@H]2CCCCN2)C1 [cobimetinib] | 1.65 |
| O=C(/C=C/c1cccnc1)NCCCCC1CCN(C(=O)c2ccccc2)CC1 [FK866] | 0.928 |
| CS(=O)(=O)c1ccc(C(=O)Nc2ccc(Cl)c(-c3ccccn3)c2)c(Cl)c1 [vismodegib] | 2.32 |
| C=CCn1c(=O)c2cnc(Nc3ccc(N4CCN(C)CC4)cc3)nc2n1-c1cccc(C(C)(C)O)n1 [adavosertib] | 2.45 |

Same assay, conditions: 10 µM

| Structure (SMILES) | CTG-3D luminescence at 96 h |
| --- | --- |
| COc1cc2c(Oc3ccc4[nH]c(C)cc4c3F)ncnc2cc1OCCCN1CCCC1 [cediranib] | 1.81 ± 0.18 |
| CC(C)n1nc(-c2ccc3oc(N)nc3c2)c2c(N)ncnc21 [sapanisertib] | 0.251 ± 0.056 |
| Cc1cc(Nc2ncnc3ccc(NC4=NC(C)(C)CO4)cc23)ccc1Oc1ccn2ncnc2c1 [tucatinib] | 1.413 ± 0.0031 |
| C[C@H](NC(=O)CCC(F)(F)F)C(=O)N[C@@H]1C(=O)N(CCO)c2ncccc2-c2ccccc21 [crenigacestat] | 1.78 ± 0.18 |
| C[C@]12CC[C@@H]3c4ccc(O)cc4C[C@@H](CCCCCCCCC[S+]([O-])CCCC(F)(F)C(F)(F)F)[C@H]3[C@@H]1CC[C@@H]2O (stereo partly specified) [fulvestrant] | 1.4 ± 0.1 |
| O=C(c1ccc(F)c(F)c1Nc1ccc(I)cc1F)N1CC(O)([C@@H]2CCCCN2)C1 [cobimetinib] | 1.57 ± 0.049 |
| O=C(/C=C/c1cccnc1)NCCCCC1CCN(C(=O)c2ccccc2)CC1 [FK866] | 0.866 ± 0.81 |
| CS(=O)(=O)c1ccc(C(=O)Nc2ccc(Cl)c(-c3ccccn3)c2)c(Cl)c1 [vismodegib] | 1.67 ± 0.21 |
| C=CCn1c(=O)c2cnc(Nc3ccc(N4CCN(C)CC4)cc3)nc2n1-c1cccc(C(C)(C)O)n1 [adavosertib] | 1.28 ± 0.21 |

Same assay, conditions: 10 µM; days in culture: 85

| Structure (SMILES) | CTG-3D luminescence at 96 h |
| --- | --- |
| COc1cc2c(Oc3ccc4[nH]c(C)cc4c3F)ncnc2cc1OCCCN1CCCC1 [cediranib] | 2.05 |
| CC(C)n1nc(-c2ccc3oc(N)nc3c2)c2c(N)ncnc21 [sapanisertib] | 0.202 |
| Cc1cc(Nc2ncnc3ccc(NC4=NC(C)(C)CO4)cc23)ccc1Oc1ccn2ncnc2c1 [tucatinib] | 1.71 |
| C[C@H](NC(=O)CCC(F)(F)F)C(=O)N[C@@H]1C(=O)N(CCO)c2ncccc2-c2ccccc21 [crenigacestat] | 1.57 |
| C[C@]12CC[C@@H]3c4ccc(O)cc4C[C@@H](CCCCCCCCC[S+]([O-])CCCC(F)(F)C(F)(F)F)[C@H]3[C@@H]1CC[C@@H]2O (stereo partly specified) [fulvestrant] | 1.41 |
| O=C(c1ccc(F)c(F)c1Nc1ccc(I)cc1F)N1CC(O)([C@@H]2CCCCN2)C1 [cobimetinib] | 2.15 |
| O=C(/C=C/c1cccnc1)NCCCCC1CCN(C(=O)c2ccccc2)CC1 [FK866] | 0.889 |
| CS(=O)(=O)c1ccc(C(=O)Nc2ccc(Cl)c(-c3ccccn3)c2)c(Cl)c1 [vismodegib] | 1.76 |
| C=CCn1c(=O)c2cnc(Nc3ccc(N4CCN(C)CC4)cc3)nc2n1-c1cccc(C(C)(C)O)n1 [adavosertib] | 1.09 |
